Laboratory results reported in the OligoGym collection.
Where “and” joins values, the source holds several entries; their conditions need not be identical. Identical values can stand only once. After the bases stand the sugars from the 5' end (letter, count) and the backbone: PS all phosphorothioate, else s phosphorothioate and o phosphodiester by linkage. HELM strings list units from the 5' end as sugar, base in round brackets, then linkage (d deoxyribose, r ribose, m 2'-O-methyl, p phosphodiester). Methylation of C is not given here. [moe] = 2'-O-(2-methoxyethyl) (MOE); [cEt] = constrained ethyl (cEt); [sp] = phosphorothioate linkage; e = 2'-O-(2-methoxyethyl) (MOE); d = 2'-deoxy (DNA)

Tests used:
HBV = settings: ASO
DGAT2 = settings: ASO

Substance | target mRNA inhibition (DGAT2; HepG2, 0.12 µM) [%] | target mRNA inhibition (DGAT2; HepG2, 2.5 µM) | target mRNA inhibition (DGAT2; HepG2, 10 µM) | also measured
RNA1{[moe](G)[sp].[moe](A)[sp].[moe](A)[sp].[moe](C)[sp].d(T)[sp].d(G)[sp].d(G)[sp].d(A)[sp].d(G)[sp].d(C)[sp].d(C)[sp].d(A)[sp].d(C)[sp].[moe](C)[sp].[moe](A)[sp].[moe](G)}$$$$V2.0 |  |  |  | target mRNA inhibition (HBV; HepG2, 0.07 µM): 46% and 53%
RNA1{[moe](A)[sp].[moe](C)[sp].[moe](C)[sp].d(A)[sp].d(C)[sp].d(T)[sp].d(G)[sp].d(A)[sp].d(A)[sp].d(C)[sp].d(A)[sp].d(A)[sp].[moe](A)[sp].[moe](T)[sp].[moe](G)[sp].[moe](G)[sp].[moe](C)}$$$$V2.0 |  |  |  | target mRNA inhibition (HBV; HepG2, 0.07 µM): 78%
RNA1{[moe](G)[sp].[cEt](A)[sp].d(T)[sp].d(G)[sp].d(A)[sp].d(G)[sp].d(G)[sp].d(C)[sp].d(A)[sp].d(T)[sp].d(A)[sp].d(G)[sp].[cEt](C)[sp].[moe](A)[sp].[cEt](G)[sp].[moe](C)}$$$$V2.0 |  |  |  | target mRNA inhibition (HBV; HepG2, 0.07 µM): 70% and 66%
RNA1{[moe](G)[sp].[moe](A)[sp].d(G)[sp].d(T)[sp].d(T)[sp].d(C)[sp].d(C)[sp].d(G)[sp].d(C)[sp].d(A)[sp].d(G)[sp].[moe](T)[sp].[moe](A)[sp].[moe](T)[sp].[moe](G)[sp].[moe](G)}$$$$V2.0 |  |  |  | target mRNA inhibition (HBV; HepG2, 0.07 µM): 52% and 45%
RNA1{[moe](T)[sp].[moe](G)[sp].[moe](G)[sp].d(A)[sp].d(G)[sp].d(C)[sp].d(C)[sp].d(A)[sp].d(C)[sp].d(C)[sp].d(A)[sp].d(G)[sp].d(C)[sp].[cEt](A)[sp].[cEt](G)[sp].[cEt](G)}$$$$V2.0 |  |  |  | target mRNA inhibition (HBV; HepG2, 0.07 µM): 60% and 67%
RNA1{[moe](C)[sp].[cEt](A)[sp].[cEt](C)[sp].d(T)[sp].d(A)[sp].d(G)[sp].d(T)[sp].d(A)[sp].d(A)[sp].d(A)[sp].d(C)[sp].d(T)[sp].d(G)[sp].[cEt](A)[sp].[cEt](G)[sp].[moe](C)}$$$$V2.0 |  |  |  | target mRNA inhibition (HBV; HepG2, 0.07 µM): 73% and 71%
RNA1{[moe](T)[sp].[cEt](C)[sp].d(C)[sp].d(A)[sp].d(C)[sp].d(C)[sp].d(A)[sp].d(C)[sp].d(G)[sp].d(A)[sp].d(G)[sp].d(T)[sp].[cEt](C)[sp].[moe](T)[sp].[cEt](A)[sp].[moe](G)}$$$$V2.0 |  |  |  | target mRNA inhibition (HBV; HepG2, 0.07 µM): 71% and 53%
RNA1{[moe](G)[sp].[moe](A)[sp].d(A)[sp].d(G)[sp].d(C)[sp].d(G)[sp].d(A)[sp].d(A)[sp].d(G)[sp].d(T)[sp].d(G)[sp].[moe](C)[sp].[moe](A)[sp].[moe](C)[sp].[moe](A)[sp].[moe](C)}$$$$V2.0 |  |  |  | target mRNA inhibition (HBV; HepG2, 0.0092593 µM): 9%; target mRNA inhibition (HBV; HepG2, 0.0277778 µM): 34%; target mRNA inhibition (HBV; HepG2, 0.07 µM): 71% and 64%; target mRNA inhibition (HBV; HepG2, 0.0833333 µM): 53%; target mRNA inhibition (HBV; HepG2, 0.25 µM): 81%
CTGACCTCAGGGTGATCAAG (sugars e5 d10 e5, PS) | 31 |  |  | 
AGAGGCCCTGGACACTGGCC (sugars e5 d10 e5, PS) | 32 |  |  | 
TGGATGGGAAAGTAGTCTCG (sugars e5 d10 e5, PS) | 40 |  |  | 
GATAGCATTGCCACTCCCAT (sugars e3 d14 e3, PS) | 75 |  |  | 
AGTTTCGGACCCACTGTGAC (sugars e3 d14 e3, PS) | 60 |  |  | 
ATCACAATATATGGGCAAGC (sugars e5 d10 e5, PS) |  | 83% and 86% | 92% and 94% | 
TAGCCAGGTAAGGCCGTATG (sugars e2 d13 e5, PS) | 51 |  |  | 
TGCAGAAGGCACCCAGGCCC (sugars e5 d10 e5, PS) | 46 |  |  | 
AAACCACTGTTGCTGAGCTC (sugars e5 d10 e5, PS) |  | 71% and 58% | 84% and 73% | 
TTCACCAGCTGGATGGGAAA (sugars e5 d10 e5, PS) | 26 |  |  | 

Substance | target mRNA inhibition (DGAT2; HepG2, 0.12 µM) [%] | target mRNA inhibition (DGAT2; HepG2, 2.5 µM) | target mRNA inhibition (DGAT2; HepG2, 10 µM) | also measured
GTATCCAAAGATATAGTTCC (sugars e5 d10 e5, PS) | 8 |  |  | 
ATTTCTTTTAAATAACCCAC (sugars e5 d10 e5, PS) | 1 |  |  | 
TCTCCTCTGCTTCTTGGGCA (sugars e5 d10 e5, PS) |  | 69% and 67% | 85% and 82% | 
GGAGCAGGCCTCGGGAAGCA (sugars e5 d10 e5, PS) |  | 38% | 85% | 
CGCGATTCACTGAGGACCTC (sugars e5 d10 e5, PS) |  | 73% and 74% | 83% and 93% | 
CAGCCTGGACAAGTCCTGCC (sugars e3 d14 e3, PS) | 72 |  |  | 
CACAGCGATGAGCCAGC (sugars e3 d10 e4, PS) |  | 50% and 31% |  | 
TTAAATAACCCACAGACACC (sugars e5 d10 e5, PS) | 0 |  |  | 
AGCTCTCAAGTCTTCCTCCT (sugars e5 d10 e5, PS) |  | 62% and 76% | 89% and 92% | 
CTCCCACCTGAGTGCTGCAA (sugars e5 d10 e5, PS) |  | 74% | 90% | 
GGGAAAGGTCTTCTCCAGCT (sugars e5 d10 e5, PS) |  | 86% and 85% | 92% and 91% | 
CTTCTTAAAAAAGACCTAAC (sugars e5 d10 e5, PS) | 26 |  |  | 
TTGAAATCCAATGCACCTTG (sugars e5 d10 e5, PS) |  | 62% | 93% | 
CTCACCCCTGTACTCAGCCC (sugars e5 d10 e5, PS) |  | 72% | 88% | 
GCATGCTTCCTCCCACTTCA (sugars e5 d10 e5, PS) |  | 84% | 76% | 
CATTGCCACTCCCATTCTTT (sugars e5 d10 e5, PS) | 44 |  |  | 
GGCAGATCTTCATTACATGA (sugars e5 d10 e5, PS) |  | 75% and 70% | 80% and 78% | 
TGAGGCCAAGGACAGAGGTT (sugars e5 d10 e5, PS) |  | 59% | 85% | 
